Assay results as given in patent US20140171419A1, “ENHANCEMENT OF CELLULAR TRANSPLANTATION USING SMALL MOLECULE MODULATORS HEPATOCYTE GROWTH FACTOR (SCATTER FACTOR) ACTIVITY” (ANGION BIOMEDICA CORP, priority 2009, published 2014).

System: primary human hepatocytes
Test: BrdU cell proliferation assay in cryopreserved primary human hepatocytes
Type: cell-based
Conditions: 50 ng/ml, overnight treatment, 4 hour BrdU incubation; control 0.032±0.011
Description: Cryopreserved primary human hepatocytes (CellzDirect catalog #[…], Lot # Hu0948) were plated on a collagen-coated 96 well plate according to the supplier's instructions and allowed to adhere and stabilize for 48 hours. Cells were treated with a compound of formula (II) embodied herein (10 μM final concentration) or HGF (50 ng/ml) overnight, and the next day, cell proliferation was determined using a BrdU assay (Chemicon, catalog #2750) according to the manufacturer's instructions, with a 4 hour incubation period of BrdU. Plates were read at 450 and 550 (background) nm and the difference was taken as an indicator of cell proliferation. Both test compound and HGF stimulated the BrdU incorporation in hepatocytes vs. control: test compound, 0.336±0.072; HGF, 0.388±0.134; and control, 0.032±0.011. Hepatocytes enhanced using the compounds of the invention can be used subsequently for cellular transplant into a human recipient, providing enhanced cell survival and numbers to increase the quality of the cells used in the transplant, the survival of cells after transplant and reduce the number of cells required to achieve the desired outcome of the transplant procedure and restoring or enhancing hepatic function in the recipient.

Substance: HGF: hepatocyte growth factor (scatter factor), a pleiotropic growth factor, used as positive comparator
- BrdU incorporation (difference of plate readings at 450 and 550 (background) nm, indicator of cell proliferation): 0.388±0.134
